From patent US20210179598A1, “SELECTIVE JAK2 INHIBITOR AND APPLICATION THEREOF” (EAST CHINA UNIVERSITY OF SCIENCE AND TECHNOLOGY, priority 2018, published 2021)
Where two headings read alike, the source gives them in different places.

How the values were obtained:
SET 2 (JAK2 V617F) cells = assay: CCK-8 cell proliferation detection, SET2 cells; assay type: cell-based; conditions: Homo sapiens, Table 2, CCK-8, 72 hrs
Excerpt: (§1) WST-8 (chemical name: 2-(2-methoxy-4-nitrophenyl)-3-(4-nitrophenyl)-5-(2,4-disulfo benzene)-2H-tetrazolium monosodium), which is reduced to a highly water-soluble yellow formazan product (Formazan dye) by the dehydrogenase in cells under the action of the electron carrier dimethyl 1-methoxy-5-methylphenazinium sulfate (1-Methoxy PMS). The amount of the produced formazan is proportional to the number of living cells. Therefore, the survival rate of cells can be calculated indirectly by measuring the absorbance at 450 nm. The half inhibition rate of the compound on the proliferation of H3122, SET2, HEL cells can be determined by the CCK-8 method.
(§2) RPIM medium containing 10% FBS was used to culture cells (100 μL per well), and 3500 cells were inoculated into a 96-well plate, and placed in a 37° C., 5% CO2 incubator for 24 h, until 50%-70% of the cell confluence was achieved. Drugs with different concentration gradients were added respectively, and incubated for another 72 hrs. […] And finally the absorption value of each well was measured at 450 nm.
(§3) NOTE: HEL, SET-2, H3122 cells were purchased from ATCC (American type culture collection), Z′-LYTETM kinase assay platform was purchased from Invitrogen, HTRF KinEASETM-TK was purchased from Cisbio, and Cell Counting Kit-8 was purchased from Beyotime.

JAK2 = JAK2 (Homo sapiens, UniProt O60674); assay: JAK2 kinase activity test at molecular level (Z'-LYTE FRET); assay type: biochemical
Chain of JAK2 (O60674 whole entry): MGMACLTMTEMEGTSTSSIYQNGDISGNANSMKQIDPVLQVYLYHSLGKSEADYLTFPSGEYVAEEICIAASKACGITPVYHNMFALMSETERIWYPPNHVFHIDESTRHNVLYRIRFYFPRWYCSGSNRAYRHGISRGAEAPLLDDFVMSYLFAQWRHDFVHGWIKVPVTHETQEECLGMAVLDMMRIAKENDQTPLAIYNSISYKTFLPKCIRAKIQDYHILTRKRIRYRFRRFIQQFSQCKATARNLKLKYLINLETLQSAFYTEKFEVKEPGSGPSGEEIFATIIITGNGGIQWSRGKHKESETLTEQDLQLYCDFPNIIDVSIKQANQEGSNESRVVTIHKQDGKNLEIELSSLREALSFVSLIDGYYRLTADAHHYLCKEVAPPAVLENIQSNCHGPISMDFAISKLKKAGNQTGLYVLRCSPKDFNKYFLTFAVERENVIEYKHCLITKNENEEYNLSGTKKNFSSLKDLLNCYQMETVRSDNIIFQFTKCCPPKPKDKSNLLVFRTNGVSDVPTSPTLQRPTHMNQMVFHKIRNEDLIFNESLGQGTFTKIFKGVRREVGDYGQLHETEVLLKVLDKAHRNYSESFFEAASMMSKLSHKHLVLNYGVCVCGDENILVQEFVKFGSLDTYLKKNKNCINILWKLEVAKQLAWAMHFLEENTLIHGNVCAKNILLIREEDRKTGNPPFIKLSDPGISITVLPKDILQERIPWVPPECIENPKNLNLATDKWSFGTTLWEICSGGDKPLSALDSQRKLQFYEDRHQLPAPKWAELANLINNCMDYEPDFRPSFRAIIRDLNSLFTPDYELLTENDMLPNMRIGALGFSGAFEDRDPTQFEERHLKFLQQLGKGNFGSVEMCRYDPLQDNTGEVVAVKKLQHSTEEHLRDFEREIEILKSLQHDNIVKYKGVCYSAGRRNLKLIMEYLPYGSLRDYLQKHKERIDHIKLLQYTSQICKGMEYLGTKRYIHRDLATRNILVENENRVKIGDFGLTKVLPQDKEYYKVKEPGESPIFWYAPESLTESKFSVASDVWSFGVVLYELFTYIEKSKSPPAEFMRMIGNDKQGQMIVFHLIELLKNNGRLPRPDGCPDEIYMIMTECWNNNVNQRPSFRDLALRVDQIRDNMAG
Experimental: JAK2 can catalyze the transfer of a phosphate group of adenosine triphosphate (ATP) to a polypeptide substrate, and the polypeptide substrate is labeled with two fluorescent groups, coumarin and fluorescein. […] Therefore, the inhibition rates of different compounds can be calculated by measuring the ratio of enzyme-catalyzed substrate phosphorylation percentages.
10 μL reaction system, 2.5 μL test compound, 5 μL kinase/peptide substrate mixture and 2.5 μL ATP solution were added into a 384-well plate, shaken for 30 s, and incubated at room temperature for 1 hour. 5 μL of proteolytic enzyme and 15 μL of the reaction system were added and shaken for 30 s and incubated at room temperature for 1 h. 5 μL of stop reagent was added, and the reaction system with a total volume of 20 μL was shaken for 30 seconds. A microplate reader was used to detect the fluorescence signal. […] The inhibition rates of the compound at 7 concentration gradients were determined, and the IC50 value for each compound was calculated by fitting curve with Origin 8.0.
as §3

H3122 cells = assay: CCK-8 cell proliferation detection, H3122 cells; assay type: cell-based; conditions: Homo sapiens
Excerpt: as §1, §2, §3

HEL (JAK2 V617F) cells = assay: CCK-8 cell proliferation detection, HEL cells; assay type: cell-based; conditions: Homo sapiens, Table 2, CCK-8, 72 hrs
Excerpt: as §1, §2, §3

ALK = ALK (Homo sapiens, UniProt Q9UM73); assay: ALK kinase IC50 test (HTRF); assay type: biochemical
Chain of ALK (Q9UM73 19-1620, species assumed): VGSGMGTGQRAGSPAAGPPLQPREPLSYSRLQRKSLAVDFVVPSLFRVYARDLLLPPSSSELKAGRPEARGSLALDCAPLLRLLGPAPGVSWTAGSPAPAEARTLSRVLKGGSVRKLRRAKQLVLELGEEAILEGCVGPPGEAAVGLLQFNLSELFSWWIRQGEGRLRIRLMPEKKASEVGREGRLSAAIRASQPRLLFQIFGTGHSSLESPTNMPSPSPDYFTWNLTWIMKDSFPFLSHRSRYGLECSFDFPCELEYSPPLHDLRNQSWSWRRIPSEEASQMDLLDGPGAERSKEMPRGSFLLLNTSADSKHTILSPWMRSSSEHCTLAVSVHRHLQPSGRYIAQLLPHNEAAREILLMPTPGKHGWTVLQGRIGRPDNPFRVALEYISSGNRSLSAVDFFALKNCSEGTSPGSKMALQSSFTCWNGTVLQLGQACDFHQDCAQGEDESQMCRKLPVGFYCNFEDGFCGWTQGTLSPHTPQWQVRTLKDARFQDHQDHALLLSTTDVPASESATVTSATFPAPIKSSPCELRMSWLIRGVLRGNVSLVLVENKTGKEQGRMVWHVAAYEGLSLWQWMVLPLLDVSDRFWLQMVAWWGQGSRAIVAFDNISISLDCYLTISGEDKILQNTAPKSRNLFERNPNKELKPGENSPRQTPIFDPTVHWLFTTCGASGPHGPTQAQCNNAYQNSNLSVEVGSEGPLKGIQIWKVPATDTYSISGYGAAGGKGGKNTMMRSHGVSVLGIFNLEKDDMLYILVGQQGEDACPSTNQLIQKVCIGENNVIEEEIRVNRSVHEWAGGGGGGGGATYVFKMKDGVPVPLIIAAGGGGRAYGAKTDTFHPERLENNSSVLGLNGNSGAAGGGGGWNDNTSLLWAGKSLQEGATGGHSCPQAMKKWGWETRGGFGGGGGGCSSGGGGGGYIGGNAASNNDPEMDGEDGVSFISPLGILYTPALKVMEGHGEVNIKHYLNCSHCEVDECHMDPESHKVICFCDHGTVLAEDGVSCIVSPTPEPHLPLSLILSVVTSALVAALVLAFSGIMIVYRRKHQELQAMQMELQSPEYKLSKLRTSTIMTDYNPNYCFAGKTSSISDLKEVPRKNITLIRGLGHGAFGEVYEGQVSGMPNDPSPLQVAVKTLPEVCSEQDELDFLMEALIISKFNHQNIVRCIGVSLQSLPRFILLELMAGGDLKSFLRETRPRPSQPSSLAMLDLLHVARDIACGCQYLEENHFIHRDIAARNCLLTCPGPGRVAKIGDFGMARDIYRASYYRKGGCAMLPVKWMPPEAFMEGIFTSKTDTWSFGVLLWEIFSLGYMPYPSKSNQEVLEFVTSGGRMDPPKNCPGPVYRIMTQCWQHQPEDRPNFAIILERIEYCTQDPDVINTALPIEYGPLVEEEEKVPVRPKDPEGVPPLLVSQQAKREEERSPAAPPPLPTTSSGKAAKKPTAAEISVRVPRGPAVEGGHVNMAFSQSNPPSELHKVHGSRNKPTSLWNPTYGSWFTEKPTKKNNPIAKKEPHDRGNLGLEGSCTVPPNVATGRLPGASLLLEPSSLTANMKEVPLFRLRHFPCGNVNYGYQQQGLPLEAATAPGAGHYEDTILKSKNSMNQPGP
Excerpt: According to HTRF method, the peptide substrate was labeled with a biotin, which can specifically bind to XL665-labeled streptavidin. When the kinase adds a phosphate group to the polypeptide substrate in the first step, its Eu-labeled specific phosphorylation antibody can recognize and bind to it. In this way, in the second step of detection, a complex of XL665-labeled streptavidin, phosphorylated peptide substrate and Eu-labeled phosphorylation antibody can be formed. Since the distance between XL665 and Eu is short, FRET can be formed. On the other hand, Eu has a relatively long fluorescence half-life and can be applied to time-resolved fluorescence detection.
10 μL of reaction system, 4 μL test compound, 2 μL kinase, 2 μL biotin-labeled substrate and 2 μL ATP, was added into a 384-well plate, shaken for 30 s, and incubated at room temperature for 1 hour. 5 μL of Eu-labeled phosphorylation site-specific antibody and 5 μL of XL665-labeled streptavidin were added. The reaction system was shaken for 30 s, and incubated at room temperature for 1 hour. A microplate reader was used to detect the fluorescence signal. The inhibition rates of the compounds under 8 concentration gradients were determined, and the IC50 value of each compound was calculated by fitting curve with Origin 8.0. […] Each experiment was performed in triplicate.
as §3

[1] = NCI-H3122, Table 2, CCK-8, 72 hrs
[2] = NCI-H3122, 72 h, Table 2, CCK-8, 72 hrs
[3] = Table 1, read-out: JAK2 kinase activity IC50

Structure (SMILES) | IC50 (SET 2 (JAK2 V617F) cells; SET-2) [µM] | IC50 (JAK2; Table 2, read-out: JAK2 IC50) [µM] | IC50 (H3122 cells; [1]) [µM] | IC50 (HEL (JAK2 V617F) cells) [µM] | IC50 (ALK; Table 2) [µM] | IC50 (H3122 cells; [2]) [µM] | IC50 (H3122 cells; NCI-H3122, Table 4, configurations of MXY-193) [µM] | IC50 (ALK; Table 4, configurations of MXY-193) [µM] | IC50 (SET 2 (JAK2 V617F) cells; SET-2, 72 h) [µM] | IC50 (JAK2; [3]) [µM] | IC50 (HEL (JAK2 V617F) cells; 72 h) [µM]
CC(Oc1cc(-c2c[nH]c3ccccc23)cnc1N)c1cc(F)ccc1Cl (stereo not drawn) [MXY-137] | 12.5 | 0.925 ± 0.102 | 50.6 ± 8.01 | 1.67 | 5.5 |  |  |  |  |  | 
CC(Oc1cc(-c2cc3ccccc3[nH]2)cnc1N)c1cc(F)ccc1Cl (stereo not drawn) [MXY-141] | 13.2 |  | > 100 | 12.2 | > 10 |  |  |  |  |  | 
CC(Oc1cc(Nc2ccccc2)cnc1N)c1cc(F)ccc1Cl (stereo not drawn) [MXY-171] | 2.14 | 3.35 ± 0.063 | 17.57 ± 0.161 | 2.11 | > 10 |  |  |  |  |  | 
CC(Oc1cc(Nc2ccccn2)cnc1N)c1cc(F)ccc1Cl (stereo not drawn) [MXY-175] | 11 | 1.1 ± 0.081 | > 100 | 2.23 | > 10 |  |  |  |  |  | 
CC(Oc1cc(-c2cnn3cccnc23)cnc1N)c1cc(F)ccc1Cl (stereo not drawn) [MXY-181] | > 50 | 0.145 ± 0.01 | 62.5 ± 4.78 | 49 | 2.34 |  |  |  |  |  | 
Cc1cc(Nc2cnc(N)c(OC(C)c3cc(F)ccc3Cl)c2)nn1C (stereo not drawn) [MXY-191] | > 50 | 2.68 ± 0.05 | > 100 | 23.1 | > 10 |  |  |  |  |  | 
CC(Oc1cc(-c2cnn(C3CCOCC3)c2)cnc1N)c1cc(F)ccc1Cl (stereo not drawn) [MXY-193] |  |  |  |  | > 10 | 78.8 ± 2.27 | 78.8 ± 2.27 | > 10 |  |  | 
N#CC[C@H](C1CCCC1)n1cc(-c2ncnc3[nH]ccc23)cn1 [Ruxolitinib, reference compound] |  |  | 27.2 ± 3.39 |  |  |  |  |  |  |  | 
CC(Oc1cc(-c2cnn(C3CCNCC3)c2)cnc1N)c1cc(F)ccc1Cl (stereo not drawn) [WWQ-131, 4-{3-[1-(2-chloro-5-fluorophenyl)ethoxy]-2-aminopyridine}pyrazol-1-piperidine] |  |  |  |  | 0.089 | 1.591 ± 0.014 |  |  | 1.33 | 0.0067 ± 0.001 | 9.78
CC(Oc1cc(-c2cnn(C3CCNCC3)c2)cnc1N)c1c(Cl)cccc1Cl (stereo not drawn) [WWQ-133, 4-{3-[1-(2,6-dichlorophenyl)ethoxy]-2-aminopyridine}pyrazol-1-piperidine] | 0.879 | 0.442 ± 0.003 | > 10 | 15 | 0.511 |  |  |  |  | 0.442 ± 0.003 | 
CCC(Oc1cc(-c2cnn(C3CCNCC3)c2)cnc1N)c1c(Cl)ccc(F)c1Cl (stereo not drawn) [WWQ-1093-13, 4-{3-[1-(2,6-dichloro-3-fluorophenyl)propoxy]-2-aminopyridine}pyrazol-1-piperidine] | 7.86 | 0.1 ± 0.002 | 3.537 ± 0.034 | 37.3 | 3.56 |  |  |  |  | 0.1 ± 0.002 | 
CC(Oc1cc(-c2cnn(C3CCNCC3)c2)cnc1N)c1c(Cl)ccc(F)c1Cl (stereo not drawn) [WWQ-1093-65, 4-{3-[1-(2,6-dichloro-3-fluorophenyl)ethoxy]-2-aminopyridine}pyrazole-1-piperidine] |  |  |  |  |  | 0.648 ± 0.044 |  |  | 1.49 |  | 11.7
Cc1n[nH]c(C)c1-c1cnc(N)c(OC(C)c2cc(F)ccc2Cl)c1 (stereo not drawn) [XFL-107] | 3.35 | 0.844 ± 0.1 | 1.45 ± 0.118 | 9.14 | 3.37 |  |  |  |  |  | 
CC(Oc1cc(-c2cnn(C)c2)cnc1N)c1cc(F)ccc1Cl (stereo not drawn) [XFL-111] | 7.56 | 0.024 ± 0.002 | 3.52 ± 0.605 | 9.05 | 0.201 |  |  |  |  |  | 
CC(Oc1cc(-c2cnoc2)cnc1N)c1cc(F)ccc1Cl (stereo not drawn) [XFL-137] | > 10 | > 10 | > 100 | > 50 | > 10 |  |  |  |  |  | 
CC(Oc1cc(-c2ccn[nH]2)cnc1N)c1cc(F)ccc1Cl (stereo not drawn) [XFL-141] | 2.48 | 0.3021 ± 0.003 | 78.6 ± 3 | 5.41 |  |  |  |  |  |  | 
Cc1n[nH]cc1-c1cnc(N)c(OC(C)c2cc(F)ccc2Cl)c1 (stereo not drawn) [XFL-147] | 4.05 | 0.0408 ± 0.0006 | 2.1 ± 0.344 | 6.15 | 0.438 |  |  |  |  |  | 
